Reference: ChEMBL document CHEMBL5614376, “Discovery of MT-1207: A Novel, Potent Multitarget Inhibitor as a Promising Clinical Candidate for the Treatment of Hypertension” (J Med Chem, 2024)

Assays:
Type in all cases: functional
Rattus norvegicus [1] = experiment: Effect on postural hypotension in Sprague-Dawley rat assessed as change in systolic blood pressure at 22 ug/kg, po treated for >30 mins followed by induction of postural hypotension measured immediately after postural change (reference value: 131 +/- 9 mmHg); details: dose 22 µg/kg, 0.5 h
Rattus norvegicus [2] = experiment: Effect on postural hypotension in Sprague-Dawley rat assessed as change in systolic blood pressure at 22 ug/kg, po treated for >30 mins followed by induction of postural hypotension measured 60 secs after postural change (reference value: 127 +/- 10 mmHg); details: dose 22 µg/kg, time > 31 min
Rattus norvegicus [3] = experiment: Effect on postural hypotension in Sprague-Dawley rat assessed as change in systolic blood pressure at 22 ug/kg, po treated for >30 mins followed by induction of postural hypotension measured 3 secs after postural change (reference value: 124 +/- 10 mmHg); details: dose 22 µg/kg, time > 30.05 min, 0.5008 h
Rattus norvegicus [4] = experiment: Effect on postural hypotension in Sprague-Dawley rat assessed as change in systolic blood pressure at 22 ug/kg, po treated for >30 mins followed by induction of postural hypotension measured 20 secs after postural change (reference value: 129 +/- 11 mmHg); details: dose 22 µg/kg, time > 30.33 min, 0.5055 h
Rattus norvegicus [5] = experiment: Effect on postural hypotension in Sprague-Dawley rat assessed as change in systolic blood pressure at 22 ug/kg, po treated for >30 mins followed by induction of postural hypotension measured 10 secs after postural change (reference value: 127 +/- 12 mmHg); details: dose 22 µg/kg, time > 30.17 min, 0.5028 h
Rattus norvegicus [6] = experiment: Effect on postural hypotension in Sprague-Dawley rat assessed as change in systolic blood pressure at 22 ug/kg, po treated for >30 mins followed by induction of postural hypotension measured 40 secs after postural change (reference value: 128 +/- 11 mmHg); details: dose 22 µg/kg, time > 30.67 min, 0.5112 h
Rattus norvegicus [7] = experiment: Effect on postural hypotension in Sprague-Dawley rat assessed as change in systolic blood pressure at 22 ug/kg, po treated for >30 mins followed by induction of postural hypotension measured 5 secs after postural change (reference value: 126 +/- 12 mmHg); details: dose 22 µg/kg, time > 30.08 min, 0.5013 h

## COc1cc2nc(N3CCN(C(=O)c4ccco4)CC3)nc(N)c2cc1OC [PRAZOSIN]
Rattus norvegicus [1]
  Activity: 95 mmHg
Rattus norvegicus [2]
  Activity: 74 mmHg
Rattus norvegicus [3]
  Activity: 81 mmHg
Rattus norvegicus [4]
  Activity: 75 mmHg
Rattus norvegicus [5]
  Activity: 75 mmHg
Rattus norvegicus [6]
  Activity: 74 mmHg
Rattus norvegicus [7]
  Activity: 77 mmHg
